Measurements reported in patent US9604996B2 (Bayer Pharma Aktiengesellschaft, priority 2013, dated 2017).

Target: T1, human adenosine A2b receptor (Homo sapiens, UniProt P29275)
T1 construct: expressed in transfected cells; host or cells: CHO-K1 (Chinese Hamster Ovary) with CRE-luciferase reporter
T1 sequence (P29275 1-332): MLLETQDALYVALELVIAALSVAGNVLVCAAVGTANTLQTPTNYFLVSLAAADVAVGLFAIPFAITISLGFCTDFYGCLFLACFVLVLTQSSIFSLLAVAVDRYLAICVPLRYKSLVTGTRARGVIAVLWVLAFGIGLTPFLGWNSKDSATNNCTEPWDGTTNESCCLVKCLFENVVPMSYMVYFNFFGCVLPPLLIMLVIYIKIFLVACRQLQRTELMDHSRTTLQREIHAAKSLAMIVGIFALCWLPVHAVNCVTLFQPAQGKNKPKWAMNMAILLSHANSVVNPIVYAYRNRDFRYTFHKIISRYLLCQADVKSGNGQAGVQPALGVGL
Assay: Cellular reporter gene (CRE-luciferase) A2b receptor antagonist assay in recombinant CHO-K1 cells stimulated with NECA
Format: cell-based
Conditions: recombinant CHO-K1 cell line, co-incubation with EC50 concentration of NECA, 3 hours, in some cases means, rounded to two significant digits
Description: B-1. Cellular In Vitro Tests for Determining A2b Receptor Activity and Adenosine Receptor Selectivity
The identification of selective antagonists of the human adenosine A2b receptor and the quantification of the efficacy and selectivity of the compounds according to the invention was carried out with the aid of recombinant cell lines for the human adenosine receptors A1, A2a, A2b and A3. These cell lines were originally derived from an ovarepithelial cell of the hamster (Chinese Hamster Ovary, CHO-K1, American Type Culture Collection, Manassas, Va. 20108, USA). In addition to the respective recombinantly expressed adenosine receptor for testing the efficacy at the A1, A2a and A2b receptors, the cell lines contain a reporter gene construct where expression of the firefly (Photinus pyralis) luciferase is under the control of a promoter which can be activated via intracellular signal cascades by stimulation of the receptors with the (not subtype-selective) adenosine receptor agonist NECA (5′-N-ethylcarboxamidoadenosine) [S. J. Hill, J. G. Baker, S. Rhees, Curr. Opin. Pharmacol. 1, 526-532 (2001)].
In the case of the A2a and A2b cell lines, this is a minimal promoter having a plurality of cAMP-responsive elements (CRE). Stimulation of the Gs coupled A2b or A2a receptors by NECA ultimately leads, via formation of cAMP, to CRE-dependent induction of luciferase expression, which is detected 3 hours after the start of the incubation with NECA using a detection solution in a suitable luminometer. For testing the antagonists, initially, in a pre-experiment, the concentration of NECA which, at the test day in question, results in half-maximum stimulation of luciferase expression (EC50 concentration) is determined By joint incubation of this EC50 concentration of NECA with the substances to be tested, it is possible to determine their antagonistic activity.

| Structure (SMILES) | IC50 |
| --- | --- |
| CC(C)Cn1c(=O)c2c(C(F)F)c(C(=O)N3CCC(O)CC3)sc2n(CCC(F)(F)F)c1=O [Example 139, 5-(Difluoromethyl)-6-[(4-hydroxypiperidin-1-yl)carbonyl]-3-isobutyl-1-(3,3,3-trifluoropropyl)thieno[2,3-d]pyrimidine-2,4(1H,3H)-dione] | 0.039 µM |
| CCn1c(=O)c2c(C)c(C(=O)N3CCNC(=O)C3)sc2n(CCOC)c1=O [Example 37, 3-Ethyl-1-(2-methoxyethyl)-5-methyl-6-[(3-oxopiperazin-1-yl)carbonyl]thieno[2,3-d]pyrimidine-2,4(1H,3H)-dione] | 0.34 µM |
| CC(C)Cn1c(=O)c2c(C(F)F)c(C(=O)N3CCC(C)(O)CC3)sc2n(CCOC(F)(F)F)c1=O [Example 138, 5-(Difluoromethyl)-6-[(4-hydroxy-4-methylpiperidin-1-yl)carbonyl]-3-isobutyl-1-[2-(trifluoromethoxy)ethyl]thieno[2,3-d]pyrimidine-2,4(1H,3H)-dione] | 0.015 µM |
| CCn1c(=O)c2c(C(F)(F)F)c(C(=O)N3CCC(C)(O)CC3)sc2n(CCC(F)(F)F)c1=O [Example 82, 3-Ethyl-6-[(4-hydroxy-4-methylpiperidin-1-yl)carbonyl]-5-(trifluoromethyl)-1-(3,3,3-trifluoropropyl)thieno[2,3-d]pyrimidine-2,4(1H,3H)-dione] | 0.023 µM |
| COC(Cn1c(=O)c2c(C)c(C(=O)N3CCC(O)CC3)sc2n(CCC(F)(F)F)c1=O)c1ccccc1 (racemic) [Example 46, 6-[(4-Hydroxypiperidin-1-yl)carbonyl]-3-(2-methoxy-2-phenylethyl)-5-methyl-1-(3,3,3-trifluoropropyl)thieno[2,3-d]pyrimidine-2,4(1H,3H)-dione (racemate)] | 0.0079 µM |
| CCn1c(=O)c2c(C)c(C(=O)N3CCC(O)C(O)C3)sc2n(CCC(F)(F)F)c1=O (racemic) [Example 116, 6-[(3,4-Dihydroxypiperidin-1-yl)carbonyl]-3-ethyl-5-methyl-1-(3,3,3-trifluoropropyl)thieno [2,3-d]pyrimidine-2,4(1H,3H)-dione] | 0.2 µM |
| CCn1c(=O)c2c(C(C)F)c(C(=O)N3CCC(O)CC3)sc2n(CCC(F)(F)F)c1=O (racemic) [Example 145, 3-Ethyl-5-(1-fluoroethyl)-6-[(4-hydroxypiperidin-1-yl)carbonyl]-1-(3,3,3-trifluoropropyl)thieno[2,3-d]pyrimidine-2,4(1H,3H)-dione] | 0.097 µM |
| Cc1c(C(=O)N2CCC(O)CC2)sc2c1c(=O)n(CCC1CC1)c(=O)n2CCC(F)(F)F [Example 63, 3-(2-Cyclopropylethyl)-6-[(4-hydroxypiperidin-1-yl)carbonyl]-5-methyl-1-(3,3,3-trifluoropropyl)thieno[2,3-d]pyrimidine-2,4(1H,3H)-dione] | 0.21 µM |
| O=C(c1cc2c(=O)n(CCc3ccccc3)c(=O)n(CCC(F)(F)F)c2s1)N1CCC(O)CC1 [Example 90, 6-[(4-Hydroxypiperidin-1-yl)carbonyl]-3-(2-phenylethyl)-1-(3,3,3-trifluoropropyl)thieno[2,3-d]pyrimidine-2,4(1H,3H)-dione] | 0.44 µM |
| Cc1c(C(=O)N2CCC(O)CC2)sc2c1c(=O)n(CCc1cccc(F)c1)c(=O)n2CCC(F)(F)F [Example 9, 3-[2-(3-Fluorophenyl)ethyl]-6-[(4-hydroxypiperidin-1-yl)carbonyl]-5-methyl-1-(3,3,3-trifluoropropyl)thieno[2,3-d]pyrimidine-2,4(1H,3H)-dione] | 0.052 µM |
| CC(C)Cn1c(=O)c2c(C(F)F)c(C(=O)N3CCC(C)(O)CC3)sc2n(CCC(F)(F)F)c1=O [Example 140, 5-(Difluoromethyl)-6-[(4-hydroxy-4-methylpiperidin-1-yl)carbonyl]-3-isobutyl-1-(3,3,3-trifluoropropyl)thieno[2,3-d]pyrimidine-2,4(1H,3H)-dione] | 0.039 µM |
| Cc1c(C(=O)N2CCC(O)CC2)sc2c1c(=O)n(CC(C)C)c(=O)n2CCC(F)(F)F [Example 64, 6-[(4-Hydroxypiperidin-1-yl)carbonyl]-3-isobutyl-5-methyl-1-(3,3,3-trifluoropropyl)thieno[2,3-d]pyrimidine-2,4(1H,3H)-dione] | 0.045 µM |
| CCn1c(=O)c2c(C)c(C(=O)N3CCC(O)(C(F)(F)F)CC3)sc2n(CCC(F)(F)F)c1=O [Example 22, 3-Ethyl-6-{[4-hydroxy-4-(trifluoromethyl)piperidin-1-yl]carbonyl}-5-methyl-1-(3,3,3-trifluoropropyl)thieno[2,3-d]pyrimidine-2,4(1H,3H)-dione] | 0.067 µM |
| Cc1c(C(=O)N2CCC(O)CC2)sc2c1c(=O)n(CCc1ccc(F)cc1)c(=O)n2CCC(F)(F)F [Example 12, 3-[2-(4-Fluorophenyl)ethyl]-6-[(4-hydroxypiperidin-1-yl)carbonyl]-5-methyl-1-(3,3,3-trifluoropropyl)thieno[2,3-d]pyrimidine-2,4(1H,3H)-dione] | 0.065 µM |
| Cc1c(C(=O)N2CCC(O)CC2)sc2c1c(=O)n(CCc1cccc(Cl)c1)c(=O)n2CCC(F)(F)F [Example 10, 3-[2-(3-Chlorophenyl)ethyl]-6-[(4-hydroxypiperidin-1-yl)carbonyl]-5-methyl-1-(3,3,3-trifluoropropyl)thieno[2,3-d]pyrimidine-2,4(1H,3H)-dione] | 0.31 µM |
| CCCn1c(=O)c2c(C)c(C(=O)N3CCNC(=O)C3)sc2n(CCC(F)(F)F)c1=O [Example 95, 5-Methyl-6-[(3-oxopiperazin-1-yl)carbonyl]-3-propyl-1-(3,3,3-trifluoropropyl)thieno [2,3-d]pyrimidine-2,4(1H,3H)-dione] | 0.14 µM |
| Cc1c(C(=O)N2CCC(O)CC2)sc2c1c(=O)n(CC(F)c1ccccc1)c(=O)n2CCC(F)(F)F (single isomer, unassigned) [Example 102, 3-(2-Fluoro-2-phenylethyl)-6-[(4-hydroxypiperidin-1-yl)carbonyl]-5-methyl-1-(3,3,3-trifluoropropyl)thieno [2,3-d]pyrimidine-2,4(1H,3H)-dione] | 0.0036 µM |
| CCn1c(=O)c2c(C)c(C(=O)N3CCC(O)CC3)sc2n(CCOC)c1=O [Example 20, 3-Ethyl-6-[(4-hydroxypiperidin-1-yl)carbonyl]-1-(2-methoxyethyl)-5-methylthieno[2,3-d]pyrimidine-2,4(1H,3H)-dione] | 0.34 µM |
| CCn1c(=O)c2c(C)c(C(=O)N3[C@@H]4CC[C@H]3CC(O)C4)sc2n(CCC(F)(F)F)c1=O (stereo partly drawn) [Example 23, 3-Ethyl-6-[(3-hydroxy-8-azabicyclo[3.2.1]oct-8-yl)carbonyl]-5-methyl-1-(3,3,3-trifluoropropyl)thieno[2,3-d]pyrimidine-2,4(1H,3H)-dione] | 0.043 µM |
| CCCn1c(=O)c2c(C)c(C(=O)N3CCC(C)(O)CC3)sc2n(CCOC(F)(F)F)c1=O [Example 79, 6-[(4-Hydroxy-4-methylpiperidin-1-yl)carbonyl]-5-methyl-3-propyl-1-[2-(trifluoromethoxy)ethyl]thieno[2,3-d]pyrimidine-2,4(1H,3H)-dione] | 0.008 µM |
| Cc1c(C(=O)N2CCC(O)CC2)sc2c1c(=O)n(CC(C)(O)c1ccccc1)c(=O)n2CCC(F)(F)F (single isomer, unassigned) [Example 133, 3-(2-Hydroxy-2-phenylpropyl)-6-[(4-hydroxypiperidin-1-yl)carbonyl]-5-methyl-1-(3,3,3-trifluoropropyl)thieno[2,3-d]pyrimidine-2,4(1H,3H)-dione] | 0.85 µM |
| CC1(O)CCN(C(=O)c2cc3c(=O)n(CCc4ccccc4)c(=O)n(CCC(F)(F)F)c3s2)CC1 [Example 91, 6-[(4-Hydroxy-4-methylpiperidin-1-yl)carbonyl]-3-(2-phenylethyl)-1-(3,3,3-trifluoropropyl)thieno[2,3-d]pyrimidine-2,4(1H,3H)-dione] | 0.26 µM |
| Cc1c(C(=O)N2CCC(O)CC2)sc2c1c(=O)n(CC(c1ccccc1)C(F)(F)F)c(=O)n2CCC(F)(F)F (racemic) [Example 104, 6-[(4-Hydroxypiperidin-1-yl)carbonyl]-5-methyl-3-(3,3,3-trifluoro-2-phenylpropyl)-1-(3,3,3-trifluoropropyl)thieno[2,3-d]pyrimidine-2,4(1H,3H)-dione] | 0.0091 µM |
| CCn1c(=O)c2c(CF)c(C(=O)N3CCC(O)CC3)sc2n(CCC(F)(F)F)c1=O [Example 143, 3-Ethyl-5-(fluoromethyl)-6-[(4-hydroxypiperidin-1-yl)carbonyl]-1-(3,3,3-trifluoropropyl)thieno[2,3-d]pyrimidine-2,4(1H,3H)-dione] | 0.082 µM |
